Test results as given in patent publication US11117900B2 (Vertex Pharmaceuticals Incorporated, priority 2012, dated 2021).

Test system: HCT116 colorectal cancer cells
Assay: Cisplatin sensitization assay (96 h MTS cell viability);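 note: compound concentration needed to lower the IC50 of Cisplatin alone by a set fold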
Assay type: cell-based
Details: Cisplatin sensitization value
Summary of the method: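 The MTS viability read, after 1 h with reagent, followed 96 h of co-treatment at 37° C. in 5% CO2. Both compound and cisplatin were titrated 2-fold from a 10 μM top final concentration in a complete concentration matrix on HCT116 cells. Scores +++/++/+ reflect cisplatin sensitization value ranges.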

| Compound | Cisplatin Sensitization Assay |
| --- | --- |
| Nc1nn2cc(F)cnc2c1C(=O)Nc1cnccc1O[C@H]1CN2CCC1CC2 [I-O-5, (R)-2-amino-6-fluoro-N-(4-(quinuclidin-3-yloxy)pyridin-3-yl)pyrazolo[1,5-a]pyrimidine-3-carboxamide] | +++ (Compounds with a Cisplatin sensitization value of <0.02 μM are marked with “+++.”) |
| Nc1nn2cc(F)cnc2c1C(=O)Nc1cnccc1Oc1cccnc1 [I-O-7, 2-amino-6-fluoro-N-(4-(pyridin-3-yloxy)pyridin-3-yl)pyrazolo[1,5-a]pyrimidine-3-carboxamide] | ++ (Compounds with a Cisplatin sensitization value >0.02 μM but <0.2 μM are marked with “++.”) |
| Nc1nn2cc(F)cnc2c1C(=O)Nc1cnccc1OC1CCC(C(=O)O)CC1 (centres unmarked) [I-O-8, 4-((3-(2-amino-6-fluoropyrazolo[1,5-a]pyrimidine-3-carboxamido)pyridin-4-yl)oxy)cyclohexanecarboxylic acid] | + (Compounds with a Cisplatin sensitization value >0.2 μM but <5 μM are marked with “+.”) |
| Nc1nn2cc(F)cnc2c1C(=O)Nc1cnccc1O[C@H]1CCCN(C2COC2)C1 [I-O-9, (S)-2-amino-6-fluoro-N-(4-((1-(oxetan-3-yl)piperidin-3-yl)oxy)pyridin-3-yl)pyrazolo[1,5-a]pyrimidine-3-carboxamide] | ++ (Compounds with a Cisplatin sensitization value >0.02 μM but <0.2 μM are marked with “++.”) |
| Nc1nn2cc(F)cnc2c1C(=O)Nc1cnccc1O[C@@H]1CN2CCC1CC2 [I-O-10, (S)-2-amino-6-fluoro-N-(4-(quinuclidin-3-yloxy)pyridin-3-yl)pyrazolo[1,5-a]pyrimidine-3-carboxamide] | +++ (Compounds with a Cisplatin sensitization value of <0.02 μM are marked with “+++.”) |
| Nc1nn2cc(F)cnc2c1C(=O)Nc1cnccc1OC1CCN(C2COC2)CC1 [I-O-11, 2-amino-6-fluoro-N-(4-((1-(oxetan-3-yl)piperidin-4-yl)oxy)pyridin-3-yl)pyrazolo[1,5-a]pyrimidine-3-carboxamide] | +++ (Compounds with a Cisplatin sensitization value of <0.02 μM are marked with “+++.”) |
| CN1CCC(Oc2ccncc2NC(=O)c2c(N)nn3cc(F)cnc23)CC1 [I-O-12, 2-amino-6-fluoro-N-(4-((1-methylpiperidin-4-yl)oxy)pyridin-3-yl)pyrazolo[1,5-a]pyrimidine-3-carboxamide] | +++ (Compounds with a Cisplatin sensitization value of <0.02 μM are marked with “+++.”) |
| COC(=O)[C@H]1CC[C@H](Oc2ccncc2NC(=O)c2c(N)nn3cc(F)cnc23)CC1 [I-O-13, (1r,4r)-methyl 4-((3-(2-amino-6-fluoropyrazolo[1,5-a]pyrimidine-3-carboxamido)pyridin-4-yl)oxy)cyclohexanecarboxylate] | +++ (Compounds with a Cisplatin sensitization value of <0.02 μM are marked with “+++.”) |
| CCOc1ccncc1NC(=O)c1c(N)nn2cc(F)cnc12 [I-O-14, 2-amino-N-(4-ethoxypyridin-3-yl)-6-fluoropyrazolo[1,5-a]pyrimidine-3-carboxamide] | +++ (Compounds with a Cisplatin sensitization value of <0.02 μM are marked with “+++.”) |
| Nc1nn2cc(F)cnc2c1C(=O)Nc1cnccc1O[C@H]1Cc2nccn2C1 [I-O-16, (S)-2-amino-N-(4-((6,7-dihydro-5H-pyrrolo[1,2-a]imidazol-6-yl)oxy)pyridin-3-yl)-6-fluoropyrazolo[1,5-a]pyrimidine-3-carboxamide] | +++ (Compounds with a Cisplatin sensitization value of <0.02 μM are marked with “+++.”) |
| CN(C)C(=O)[C@H]1CC[C@@H](Oc2ccncc2NC(=O)c2c(N)nn3cc(F)cnc23)CC1 [I-O-17, 2-amino-N-(4-(((1s,4s)-4-(dimethylcarbamoyl)cyclohexyl)oxy)pyridin-3-yl)-6-fluoropyrazolo[1,5-a]pyrimidine-3-carboxamide] | +++ (Compounds with a Cisplatin sensitization value of <0.02 μM are marked with “+++.”) |
| CN1CCN(C(=O)[C@H]2CC[C@@H](Oc3ccncc3NC(=O)c3c(N)nn4cc(F)cnc34)CC2)CC1 [I-O-19, 2-amino-6-fluoro-N-(4-(((1s,4s)-4-(4-methylpiperazine-1-carbonyl)cyclohexyl)oxy)pyridin-3-yl)pyrazolo[1,5-a]pyrimidine-3-carboxamide] | +++ (Compounds with a Cisplatin sensitization value of <0.02 μM are marked with “+++.”) |
| CCC(C#N)c1cnc2c(C(=O)Nc3cnccc3OC)c(N)nn2c1 (centres unmarked) [I-O-20, 2-amino-6-(1-cyanopropyl)-N-(4-methoxypyridin-3-yl)pyrazolo[1,5-a]pyrimidine-3-carboxamide] | ++ (Compounds with a Cisplatin sensitization value >0.02 μM but <0.2 μM are marked with “++.”) |
| COc1ccncc1NC(=O)c1c(N)nn2cc(C(C)C#N)cnc12 (centres unmarked) [I-O-21, 2-amino-6-(1-cyanoethyl)-N-(4-methoxypyridin-3-yl)pyrazolo[1,5-a]pyrimidine-3-carboxamide] | ++ (Compounds with a Cisplatin sensitization value >0.02 μM but <0.2 μM are marked with “++.”) |
| CN1CCC(Oc2ccncc2NC(=O)c2c(N)nn3cc(CC#N)cnc23)CC1 [I-O-23, 2-amino-6-(cyanomethyl)-N-(4-((1-methylpiperidin-4-yl)oxy)pyridin-3-yl)pyrazolo[1,5-a]pyrimidine-3-carboxamide] | +++ (Compounds with a Cisplatin sensitization value of <0.02 μM are marked with “+++.”) |
| CN(C)CCOc1ccncc1NC(=O)c1c(N)nn2cc(CC#N)cnc12 [I-O-24, 2-amino-6-(cyanomethyl)-N-(4-(2-(dimethylamino)ethoxy)pyridin-3-yl)pyrazolo[1,5-a]pyrimidine-3-carboxamide] | ++ (Compounds with a Cisplatin sensitization value >0.02 μM but <0.2 μM are marked with “++.”) |
| N#CCc1cnc2c(C(=O)Nc3cnccc3Oc3ccccc3)c(N)nn2c1 [I-O-25, 2-amino-6-(cyanomethyl)-N-(4-phenoxypyridin-3-yl)pyrazolo[1,5-a]pyrimidine-3-carboxamide] | +++ (Compounds with a Cisplatin sensitization value of <0.02 μM are marked with “+++.”) |
| COc1ccncc1NC(=O)c1c(N)nn2cc(CC#N)cnc12 [I-O-26, 2-amino-6-(cyanomethyl)-N-(4-methoxypyridin-3-yl)pyrazolo[1,5-a]pyrimidine-3-carboxamide] | ++ (Compounds with a Cisplatin sensitization value >0.02 μM but <0.2 μM are marked with “++.”) |
| COc1cc(Cl)ncc1NC(=O)c1c(N)nn2cc(CC#N)cnc12 [I-O-27, 2-amino-N-(6-chloro-4-methoxypyridin-3-yl)-6-(cyanomethyl)pyrazolo[1,5-a]pyrimidine-3-carboxamide] | ++ (Compounds with a Cisplatin sensitization value >0.02 μM but <0.2 μM are marked with “++.”) |
| CCOc1ccncc1NC(=O)c1c(N)nn2cc(CC#N)cnc12 [I-O-28, 2-amino-6-(cyanomethyl)-N-(4-ethoxypyridin-3-yl)pyrazolo[1,5-a]pyrimidine-3-carboxamide] | +++ (Compounds with a Cisplatin sensitization value of <0.02 μM are marked with “+++.”) |
| COCCOc1ccncc1NC(=O)c1c(N)nn2cc(CC#N)cnc12 [I-O-29, 2-amino-6-(cyanomethyl)-N-(4-(2-methoxyethoxy)pyridin-3-yl)pyrazolo[1,5-a]pyrimidine-3-carboxamide] | +++ (Compounds with a Cisplatin sensitization value of <0.02 μM are marked with “+++.”) |
| N#CCc1cnc2c(C(=O)Nc3cnccc3OC3CCOCC3)c(N)nn2c1 [I-O-30, 2-amino-6-(cyanomethyl)-N-(4-((tetrahydro-2H-pyran-4-yl)oxy)pyridin-3-yl)pyrazolo[1,5-a]pyrimidine-3-carboxamide] | +++ (Compounds with a Cisplatin sensitization value of <0.02 μM are marked with “+++.”) |
| N#CCc1cnc2c(C(=O)Nc3cnccc3O[C@@H]3CCOC3)c(N)nn2c1 [I-O-31, (R)-2-amino-6-(cyanomethyl)-N-(4-((tetrahydrofuran-3-yl)oxy)pyridin-3-yl)pyrazolo[1,5-a]pyrimidine-3-carboxamide] | +++ (Compounds with a Cisplatin sensitization value of <0.02 μM are marked with “+++.”) |
| N#CCc1cnc2c(C(=O)Nc3cnccc3OCC3CC3)c(N)nn2c1 [I-O-32, 2-amino-6-(cyanomethyl)-N-(4-(cyclopropylmethoxy)pyridin-3-yl)pyrazolo[1,5-a]pyrimidine-3-carboxamide] | +++ (Compounds with a Cisplatin sensitization value of <0.02 μM are marked with “+++.”) |
| N#CCc1cnc2c(C(=O)Nc3cnccc3OCCO)c(N)nn2c1 [I-O-33, 2-amino-6-(cyanomethyl)-N-(4-(2-hydroxyethoxy)pyridin-3-yl)pyrazolo[1,5-a]pyrimidine-3-carboxamide] | ++ (Compounds with a Cisplatin sensitization value >0.02 μM but <0.2 μM are marked with “++.”) |
| N#CCc1cnc2c(C(=O)Nc3cnccc3OCC(F)(F)F)c(N)nn2c1 [I-O-34, 2-amino-6-(cyanomethyl)-N-(4-(2,2,2-trifluoroethoxy)pyridin-3-yl)pyrazolo[1,5-a]pyrimidine-3-carboxamide] | ++ (Compounds with a Cisplatin sensitization value >0.02 μM but <0.2 μM are marked with “++.”) |
| CC(C)Oc1ccncc1NC(=O)c1c(N)nn2cc(CC#N)cnc12 [I-O-35, 2-amino-6-(cyanomethyl)-N-(4-isopropoxypyridin-3-yl)pyrazolo[1,5-a]pyrimidine-3-carboxamide] | +++ (Compounds with a Cisplatin sensitization value of <0.02 μM are marked with “+++.”) |
| N#CCc1cnc2c(C(=O)Nc3cnccc3OC3CCC3)c(N)nn2c1 [I-O-36, 2-amino-6-(cyanomethyl)-N-(4-cyclobutoxypyridin-3-yl)pyrazolo[1,5-a]pyrimidine-3-carboxamide] | +++ (Compounds with a Cisplatin sensitization value of <0.02 μM are marked with “+++.”) |
| N#CCc1cnc2c(C(=O)Nc3cnccc3OC3COC3)c(N)nn2c1 [I-O-38, 2-amino-6-(cyanomethyl)-N-(4-(oxetan-3-yloxy)pyridin-3-yl)pyrazolo[1,5-a]pyrimidine-3-carboxamide] | +++ (Compounds with a Cisplatin sensitization value of <0.02 μM are marked with “+++.”) |
